Measurements as given in patent US7351732B2, “Cycloalkanedione derivatives, method for the production thereof and their pharmacological applications” (Schwarz Pharma S.L., priority 2002, dated 2008).
Counter-ions that a name gives are not always drawn. Like-named read-outs stand apart in the source and are kept apart here.

Columns and labels:
[1] = biological target: T1, 5-HT7 receptors (Rattus norvegicus, UniProt P32305); test: Radioligand displacement, 5-HT7 receptors, [3H]-5-CT; assay type: binding; details: read-out: Ki ± E.E. 5-HT7
T1 construct: (e) 5-HT7 receptors, [^3H]-5-CT, rat hypothalamus; from tissue; host or cells: rat hypothalamus

[2] = biological target: T2, 5-HT4 receptors (Rattus norvegicus, UniProt Q62758); test: Radioligand displacement, 5-HT4 receptors, [3H]GR 113808; assay type: binding; details: [3H]GR 113808, rat striatum; read-out: Ki ± E.E. 5-HT4
T2 construct: (d) 5-HT4 receptors, [^3H]GR 113808, rat striatum; from tissue; host or cells: rat striatum

[3] = biological target: T3, 5-HT3 receptors (Rattus norvegicus, UniProt P35563); test: Radioligand displacement, 5-HT3 receptors, [3H]LY 278584; assay type: binding; details: [3H]LY 278584, rat cerebral cortex; read-out: Ki ± E.E. 5-HT3
T3 construct: (c) 5-HT3 receptors, [^3H]LY 278584, rat cerebral cortex; from tissue; host or cells: rat cerebral cortex
T3 sequence (P35563 24-483): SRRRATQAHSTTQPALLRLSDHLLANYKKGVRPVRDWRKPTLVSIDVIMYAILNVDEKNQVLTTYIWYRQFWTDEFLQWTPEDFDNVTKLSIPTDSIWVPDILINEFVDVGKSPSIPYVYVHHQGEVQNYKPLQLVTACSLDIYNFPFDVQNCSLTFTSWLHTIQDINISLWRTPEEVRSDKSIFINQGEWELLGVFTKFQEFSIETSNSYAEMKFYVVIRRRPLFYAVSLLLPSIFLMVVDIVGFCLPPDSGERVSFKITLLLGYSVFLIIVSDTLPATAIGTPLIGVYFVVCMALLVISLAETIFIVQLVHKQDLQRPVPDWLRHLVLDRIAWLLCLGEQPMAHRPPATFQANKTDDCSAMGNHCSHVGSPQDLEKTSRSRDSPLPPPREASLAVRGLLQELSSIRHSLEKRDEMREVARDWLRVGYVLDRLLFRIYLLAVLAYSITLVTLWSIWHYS

[4] = biological target: T4, 5-HT1A (Rattus norvegicus, UniProt P19327); test: Radioligand displacement, 5-HT1A receptors, [3H]-8-OH-DPAT; assay type: binding; parameters: (a) 5-HT1A receptors, [^3H]-8-OH-DPAT, rat cerebral cortex; from tissue; host or cells: rat cerebral cortex; details: rat cerebral cortex, read-out: Ki ± E.E. 5-HT1A
T4 sequence (P19327 1-422): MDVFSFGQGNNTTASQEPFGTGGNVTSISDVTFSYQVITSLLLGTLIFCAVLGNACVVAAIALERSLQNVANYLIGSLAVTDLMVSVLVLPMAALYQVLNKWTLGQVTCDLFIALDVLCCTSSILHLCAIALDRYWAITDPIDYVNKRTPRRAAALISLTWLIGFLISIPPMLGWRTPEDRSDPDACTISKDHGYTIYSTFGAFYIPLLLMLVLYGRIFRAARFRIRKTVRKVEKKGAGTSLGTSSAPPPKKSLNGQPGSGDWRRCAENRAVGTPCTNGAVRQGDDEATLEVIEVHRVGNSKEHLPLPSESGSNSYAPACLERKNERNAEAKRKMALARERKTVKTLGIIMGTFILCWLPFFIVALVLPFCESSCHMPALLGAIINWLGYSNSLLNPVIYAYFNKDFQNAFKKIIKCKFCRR

[5] = biological target: α1 receptors; test: Radioligand displacement, α1 receptors, [3H]prazosin; assay type: binding; details: rat cerebral cortex, read-out: Ki ± E.E. α1
[6] = biological target: T5, 5-HT2A receptors (Rattus norvegicus, UniProt P14842); test: Radioligand displacement, 5-HT2A receptors, [3H]ketanserin; assay type: binding; details: rat cerebral cortex, read-out: Ki ± E.E. 5-HT2A
T5 construct: (b) 5-HT2A receptors, [^3H]ketanserin, rat cerebral cortex; from tissue; host or cells: rat cerebral cortex

[7] = biological target: T6, D2 receptors (Rattus norvegicus, UniProt P61169); test: Radioligand displacement, D2 receptors, [3H]spiperone; assay type: binding; details: rat striatum, read-out: Ki ± E.E. D2
T6 construct: (g) D2 receptors, [^3H]spiperone, rat striatum; from tissue; host or cells: rat striatum
T6 sequence (P61169 whole entry): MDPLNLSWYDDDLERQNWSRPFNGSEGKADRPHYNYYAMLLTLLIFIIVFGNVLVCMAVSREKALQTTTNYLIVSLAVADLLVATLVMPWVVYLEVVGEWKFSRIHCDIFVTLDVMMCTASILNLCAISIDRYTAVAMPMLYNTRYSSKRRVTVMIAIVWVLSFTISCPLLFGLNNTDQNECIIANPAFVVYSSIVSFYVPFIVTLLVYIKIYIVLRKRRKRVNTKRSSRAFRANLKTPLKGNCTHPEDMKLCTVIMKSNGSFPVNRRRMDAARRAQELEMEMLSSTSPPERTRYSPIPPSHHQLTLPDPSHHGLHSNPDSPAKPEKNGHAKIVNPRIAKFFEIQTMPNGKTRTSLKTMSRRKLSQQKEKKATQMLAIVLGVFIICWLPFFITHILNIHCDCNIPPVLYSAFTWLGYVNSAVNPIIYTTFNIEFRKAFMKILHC

T5 sequence (P14842 whole entry): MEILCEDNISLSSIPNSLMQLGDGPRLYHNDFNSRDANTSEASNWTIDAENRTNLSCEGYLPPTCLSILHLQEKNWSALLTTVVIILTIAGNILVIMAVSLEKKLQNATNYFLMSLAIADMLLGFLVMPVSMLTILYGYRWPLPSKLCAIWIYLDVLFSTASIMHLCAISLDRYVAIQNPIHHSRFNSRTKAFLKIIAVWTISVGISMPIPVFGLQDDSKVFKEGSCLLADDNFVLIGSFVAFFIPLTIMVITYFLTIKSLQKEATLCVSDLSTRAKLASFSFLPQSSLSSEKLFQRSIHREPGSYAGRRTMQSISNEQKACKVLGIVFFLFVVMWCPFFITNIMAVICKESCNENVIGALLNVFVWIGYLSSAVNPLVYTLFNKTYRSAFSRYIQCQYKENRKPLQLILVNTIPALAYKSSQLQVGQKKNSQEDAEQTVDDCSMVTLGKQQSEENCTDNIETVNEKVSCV
T2 sequence (Q62758 whole entry): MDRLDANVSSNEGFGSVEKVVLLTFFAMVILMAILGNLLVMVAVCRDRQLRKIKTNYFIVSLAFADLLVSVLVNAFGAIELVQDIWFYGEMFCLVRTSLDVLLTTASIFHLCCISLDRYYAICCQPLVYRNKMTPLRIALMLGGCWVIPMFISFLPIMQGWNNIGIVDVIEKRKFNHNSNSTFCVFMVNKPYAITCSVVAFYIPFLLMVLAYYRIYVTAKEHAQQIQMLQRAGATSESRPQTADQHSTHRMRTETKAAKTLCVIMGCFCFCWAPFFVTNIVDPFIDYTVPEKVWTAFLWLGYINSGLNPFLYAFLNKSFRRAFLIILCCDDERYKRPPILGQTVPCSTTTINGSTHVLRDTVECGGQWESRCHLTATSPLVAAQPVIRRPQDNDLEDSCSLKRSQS
T1 sequence (P32305 whole entry): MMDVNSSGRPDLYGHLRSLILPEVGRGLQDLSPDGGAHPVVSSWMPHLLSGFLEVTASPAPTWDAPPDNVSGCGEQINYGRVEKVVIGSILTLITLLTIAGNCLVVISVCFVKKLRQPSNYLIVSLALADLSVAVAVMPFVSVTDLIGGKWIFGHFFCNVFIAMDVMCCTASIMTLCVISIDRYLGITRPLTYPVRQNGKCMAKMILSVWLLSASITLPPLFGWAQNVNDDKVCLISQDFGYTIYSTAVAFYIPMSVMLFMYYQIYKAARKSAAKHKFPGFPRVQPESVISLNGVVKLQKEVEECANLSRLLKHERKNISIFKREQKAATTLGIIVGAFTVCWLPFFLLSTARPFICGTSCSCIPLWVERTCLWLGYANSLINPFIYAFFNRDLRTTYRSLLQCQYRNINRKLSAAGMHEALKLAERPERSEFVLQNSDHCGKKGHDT

Row | Ki [4] | Ki [5] | melting point | Compound | also measured
1 | 43.2 ± 4.5 nM | 99 ± 14 nM |  | O=C1C2CCCN2C(=O)N1CCCCNCCc1ccc2ccccc2c1 (stereo not shown) [Compound 11, 2-[4-[2-(Naphth-2-yl)ethylamine]butyl]-1,3-dioxoperhydropyrrolo[1,2-c]imidazol] | Ki ([1]; [3H]-5-CT, rat hypothalamus): 74 ± 7.3 nM; Ki [2]: 594 ± 43.7 nM; Ki [3]: > 10000 nM; Ki [6]: 157.3 ± 0.65 nM
2 |  |  | 149 to 151 °C | O=C1CSC(=O)N1CCCCNCCOc1cccc2ccccc12 (as salt: hydrochloride) [Compound 15, 3-[4-[2-(Naphth-1-oxi)ethylamine]butyl]-2,4-dioxothiazolidin] | 
3 | 5.5 ± 0.4 nM |  |  | O=C1CSC(=O)N1CCCCCNCC1CCc2ccccc2O1 (racemic) [Compound 5, (±)-3-[5-[(Chroman-2-yl)methylamine]pentyl]-2,4-dioxothiazolidin] | 
4 | 1.3 ± 0.2 nM |  |  | O=C1CSC(=O)N1CCCCCCNCC1CCc2ccccc2O1 (racemic) [Compound 6, (±)-3-[6-[(Chroman-2-yl)methylamine]hexyl]-2,4-dioxothiazolidin] | 
5 | 27.9 ± 3.1 nM | > 1000 nM |  | O=C1C2CCCN2C(=O)N1CCCCNCCc1cccc2ccccc12 (stereo not shown) [Compound 9, 2-[4-[2-(Naphth-1-yl)ethylamine]butyl]-1,3-dioxoperhydropyrrolo[1,2-c]imidazol] | Ki [2]: > 10000 nM; Ki [7]: > 10000 nM; Ki [6]: > 10000 nM
6 | 2.4 ± 0.6 nM | 30.9 ± 4.9 nM |  | O=C1C2CCCN2C(=O)N1CCCCNCCOc1cccc2ccccc12 (stereo not shown) [Compound 14, 2-[4-[2-(Naphth-1-oxi)ethylamine]butyl]-1,3-dioxoperhydropyrrolo[1,2-c]imidazol] | Ki ([1]; [3H]-5-CT, rat hypothalamus): 42.6 ± 4.4 nM; Ki [2]: > 10000 nM; Ki [3]: > 1000 nM; Ki [7]: > 1000 nM; Ki [6]: 41.5 ± 7.5 nM
7 |  |  | 142 to 144 °C | O=C1C2CSCN2C(=O)N1CCCCNCC1CCc2ccccc2O1 (racemic) (as salt: hydrochloride) [Compound 3, (±)-2-[4-[(Chroman-2-yl)methylamine]butyl]-1,3-dioxoperhydroimidazo[1,5-c]-thiazol] | 
8 |  |  | 163 to 164 °C | O=C1C2CCCN2C(=O)N1CCCCNCCOc1cccc2ccccc12 (stereo not shown) (as salt: hydrochloride) [Compound 14, 2-[4-[2-(Naphth-1-oxi)ethylamine]butyl]-1,3-dioxoperhydropyrrolo[1,2-c]imidazol] | 
9 | > 10000 nM | > 10000 nM |  | COc1ccccc1CNCCCCN1C(=O)C2CCCN2C1=O (stereo not shown) [Compound 17, 2-[4-[(o-Methoxyphenyl)methylamine]butyl]-1,3-dioxoperhydropyrrolo[1,2-c]imidazol] | 
10 | 868 ± 23.1 nM | > 1000 nM |  | COc1ccccc1CCNCCCCN1C(=O)C2CCCN2C1=O (stereo not shown) [Compound 18, 2-[4-[2-(o-Methoxyphenyl)ethylamine]butyl]-1,3-dioxoperhydropyrrolo[1,2-c]imidazol] | Ki [2]: > 10000 nM; Ki [7]: > 10000 nM; Ki [6]: > 10000 nM
11 |  |  | 130 to 132 °C | O=C1C2CCCN2C(=O)N1CCCCNCCc1ccc2ccccc2c1 (stereo not shown) (as salt: hydrochloride) [Compound 11, 2-[4-[2-(Naphth-2-yl)ethylamine]butyl]-1,3-dioxoperhydropyrrolo[1,2-c]imidazol] | 
12 |  |  |  | COc1cc(COc2cc(N)c(Cl)cc2C(=O)CCC2CCN(CCNS(C)(=O)=O)CC2)cc(OC)c1 [RS-39604, reference compound] | Ki [2]: 3.9 ± 0.2 nM
13 |  |  | 175 to 177 °C | O=C1CSC(=O)N1CCCCCCNCC1CCc2ccccc2O1 (racemic) (as salt: hydrochloride) [Compound 6, (±)-3-[6-[(Chroman-2-yl)methylamine]hexyl]-2,4-dioxothiazolidin] | 
14 |  |  |  | CN(C)CCCSc1ccccc1NC(=O)/C=C/c1ccccc1 [Cinanserine, reference compound] | Ki [6]: 2.6 ± 0.4 nM
15 |  |  | 125 to 127 °C | O=C1C2CCCN2C(=O)N1CCCCNCc1ccc2ccccc2c1 (stereo not shown) (as salt: hydrochloride) [Compound 8, 2-[4-[(Naphth-2-yl)methylamine]butyl]-1,3-dioxoperhydropyrrolo[1,2-c]imidazol] | 
16 | 4.5 ± 0.2 nM | 54.7 ± 1.8 nM |  | O=C1CSC(=O)N1CCCCNCCOc1cccc2ccccc12 [Compound 15, 3-[4-[2-(Naphth-1-oxi)ethylamine]butyl]-2,4-dioxothiazolidin] | Ki ([1]; [3H]-5-CT, rat hypothalamus): 19.9 ± 0.8 nM; Ki [3]: > 10000 nM; Ki [7]: > 1000 nM; Ki [6]: 38.5 ± 7.7 nM
17 |  |  |  | CCCN(CCC)C1CCc2cccc(O)c2C1 (stereo not shown) [Compound 8-OH-DPAT, 8-OH-DPAT, reference compound] | Ki [1]: 83.8 nM
18 |  | 49.6 ± 2.9 nM |  | O=C1C2CCCN2C(=O)N1CCCCNCc1cccc2ccccc12 (stereo not shown) [Compound 7, 2-[4-[(Naphth-1-yl)methylamine]butyl]-1,3-dioxoperhydropyrrolo[1,2-c]imidazol] | Ki ([1]; [3H]-5-CT, rat hypothalamus): > 10000 nM; Ki [2]: > 10000 nM; Ki [7]: > 10000 nM; Ki [6]: > 1000 nM
19 |  |  | 128 to 129 °C | O=C1CSC(=O)N1CCCCNCCc1cccc2ccccc12 (as salt: hydrochloride) [Compound 10, 3-[4-[2-(Naphth-1-yl)ethylamine]butyl]-2,4-dioxothiazolidin] | 
20 |  |  | 95 to 97 °C | O=C1C2CCCN2C(=O)N1CCCCNCCc1cccc2ccccc12 (stereo not shown) (as salt: hydrochloride) [Compound 9, 2-[4-[2-(Naphth-1-yl)ethylamine]butyl]-1,3-dioxoperhydropyrrolo[1,2-c]imidazol] | 
21 |  |  | 150 to 153 °C | O=C1C2CCCN2C(=O)N1CCCCNCc1cccc2ccccc12 (stereo not shown) (as salt: hydrochloride) [Compound 7, 2-[4-[(Naphth-1-yl)methylamine]butyl]-1,3-dioxoperhydropyrrolo[1,2-c]imidazol] | 
22 |  | 6.1 ± 0.1 nM |  | Cc1ccc(N(CC2=NCCN2)c2cccc(O)c2)cc1 [Phentolamine, reference compound] | 
23 |  |  | 160 to 162 °C | COc1ccccc1CCNCCCCN1C(=O)C2CCCN2C1=O (stereo not shown) (as salt: hydrochloride) [Compound 18, 2-[4-[2-(o-Methoxyphenyl)ethylamine]butyl]-1,3-dioxoperhydropyrrolo[1,2-c]imidazol] | 
24 |  |  |  | NCCc1c[nH]c2ccc(C(N)=O)cc12 [Compound 5-CT, 5-CT, reference compound] | Ki ([1]; [3H]-5-CT, rat hypothalamus): 1.8 ± 0.6 nM
25 | 51.01 ± 0.47 nM |  |  | O=C1C2CCCN2C(=O)N1CCCCNCc1ccc2ccccc2c1 (stereo not shown) [Compound 8, 2-[4-[(Naphth-2-yl)methylamine]butyl]-1,3-dioxoperhydropyrrolo[1,2-c]imidazol] | 

Row | Compound | Ki [4] | Ki [5] | melting point | also measured
26 | COc1ccccc1CCCNCCCN1C(=O)C2CCCN2C1=O (stereo not shown) [Compound 21, 2-[3-[3-(o-Methoxyphenyl)propylamine]propyl]-1,3-dioxoperhydropyrrolo[1,2-c]imidazol] | > 1000 nM | > 1000 nM |  | Ki ([1]; [3H]-5-CT, rat hypothalamus): > 10000 nM; Ki [2]: > 1000 nM; Ki [3]: > 10000 nM; Ki [7]: > 10000 nM; Ki [6]: > 10000 nM
27 | O=C1C2SCCN2C(=O)N1CCCCNCC1CCc2ccccc2O1 (racemic) (as salt: hydrochloride) [Compound 2, (±)-2-[4-[(Chroman-2-yl)methylamine]butyl]-1,3-dioxoperhydroimidazo[1,5-b]thiazol] |  |  | 149 to 151 °C | 
28 | O=C1C2CCCN2C(=O)N1CCCCNCc1nc2ccccc2[nH]1 (stereo not shown) (as salt: hydrochloride) [Compound 16, 2-[4-[(Benzimidazol-2-yl)methylamine]butyl]-1,3-dioxoperhydropyrrolo[1,2-c]imidazol] |  |  | 208 to 210 °C | 
29 | O=C1CSC(=O)N1CCCCNCCOc1ccccc1 (as salt: hydrochloride) [Compound 13, 3-[4-[2-(Phenoxy)ethylamine]butyl]-2,4-dioxothiazolidin] |  |  | 173 to 174 °C | 
